From publication PMC8279416, “Structural Fine-Tuning of Desmuramylpeptide NOD2 Agonists Defines Their In Vivo Adjuvant Activity” (Journal of Medicinal Chemistry, 2021)

Tests used:
PBMCs = test: RNA sequencing of PBMCs, differential expression analysis; format: cell-based, human; settings: 2 μM, 18 h; for Number of genes with significantly modulated expression: FDR <0.05, fold change >1.5 or <0.667 vs 0.1% DMSO; for Number of differentially expressed genes: down-regulated / Number of differentially expressed genes: up-regulated: vs 0.1% DMSO
Description: Based on the potent in vitro NOD2 activation by 68 and the PBMC cytotoxicity activation by 75, we explored the effects of 68 and 75 in terms of induction at the transcriptional level. Next-generation sequencing of RNA isolated from PBMCs was carried out following their stimulation for 18 h with 68 or 75 (2 μM). After applying a low expression filter, the remaining 19046 genes from the desmuramylpeptide-treated samples were compared to the vehicle-treated controls (0.1% DMSO).
Peripheral blood mononuclear cells from three independent donors were seeded (2 × 10^6 cells/mL) in 24-well plates in 1 mL of growth medium and treated with the compounds (2 μM) or vehicle (0.1% DMSO) for 18 h at 37 °C in 5% CO2. The cells were washed with phosphate-buffered saline, resuspended in RNAlater RNA stabilization solution (Sigma-Aldrich, St. Louis, MO, U.S.A.), and stored at −80 °C. RNA extraction, library construction, and sequencing were conducted by Genewiz (Leipzig, Germany).
Briefly, total RNA was extracted using the RNeasy mini kit (Qiagen, Hilden, Germany) according to the manufacturer protocol. RNA samples were quantified using Qubit 4.0 Fluorometer (Life Technologies, Carlsbad, CA, U.S.A.), and RNA integrity was checked with RNA Kit on a 5600 Fragment Analyzer (Agilent Technologies, Palo Alto, CA, U.S.A.). All RNA samples were of high quality with an RNA quality number of ≥9.4. RNA sequencing libraries were prepared using NEBNext Ultra II RNA library prep kit for Illumina according to the manufacturer instructions (New England Biolabs, Ipswich, MA, U.S.A.). Libraries were loaded on the Illumina NovaSeq 6000 instrument, and clustering was performed directly on the NovaSeq before sequencing according to the manufacturer instructions. The samples were sequenced using a 2 × 150 paired end configuration. Image analysis and base calling were conducted by the NovaSeq Control Software. Raw sequence data (.bcl files) generated from the Illumina NovaSeq were converted into fastq files and demultiplexed using Illumina’s bcl2fastq 2.19 software. One mismatch was allowed for index sequence identification. After investigating the quality of the raw data, sequence reads were trimmed to remove possible adapter sequences and nucleotides with poor quality using Trimmomatic v.0.36. The trimmed reads were mapped to the Homo sapiens reference genome as available on ENSEMBL, using STAR aligner v.2.5.2b, thus generating BAM files. Unique gene hit counts were calculated using feature counts from the Subread package v.1.5.2. Only unique reads that fell within exon regions were counted. After extraction of gene hit counts, the gene hit counts table was used for downstream differential expression analysis.
Differential expression analysis was performed with iDEP.91.[128] First, a low expression filter was applied (0.5 counts per million in at least 1 library). The remaining gene counts were normalized by counts per million in the EdgeR package, with a pseudocount of 4. Differential gene expression analysis was performed with the DESeq2 method, using a false discovery rate <0.05 and a gene expression fold change >1.5 or <0.667 as the cutoff values. The list of differentially expressed genes was then used as input for gene annotation and pathway enrichment analysis with Metascape.[94]

[1] = tested on: BMDC/CD4+ T-cell cocultures; test: T cell cytokine release in BMDC/T-cell cocultures; format: cell-based, mouse; settings: BMDCs pretreated with 10 μM, CD4+ T cells, 72 h
Description: To evaluate the adjuvant potential of the two most-promising desmuramylpeptides, 68 and 75, in terms of their effects on DC-mediated activation of CD4^+ and CD8^+ T cells, we used an in vitro antigen-presentation assay with C57BL/6 mouse bone-marrow-derived DCs (BMDCs). Following stimulation with 68 and 75 (1 or 10 μM) in the presence of ovalbumin soluble protein (50 μg/mL), BMDCs were cocultured with carboxyfluorescein succinimidyl ester (CFSE)-labeled naive ovalbumin-specific CD4^+ or CD8^+ T cells, which were isolated from splenocytes of OT II and OT I transgenic mice, respectively. After 3 days of coculture, CD25 (α subunit of IL-2 receptor)[108] expression was determined, along with the CFSE dilution, as markers of T-cell activation and proliferation, respectively. […]
Supernatants from CD4^+ and CD8^+ T cells after 72 h of co-incubation with BMDCs (pretreated with desmuramylpeptides [10 μM] and washed) were collected as described above. The cytokine concentrations were determined with the Cytometric Bead Array Mouse Th1/Th2/Th17 Cytokine Kit (contents: IL-2, IL-4, IL-6, IFN-γ, TNF, IL-17A, IL-10; BD Bioscience) on an Attune NxT flow cytometer (Thermo Fisher Scientific, Waltham, MA, U.S.A.). […] The data were analyzed using the FlowJo (Tree Star, Inc., Ashland, OR, U.S.A.) and Prism (GraphPad, San Diego, CA, U.S.A.) software. […]

Row | Compound | Number of genes with significantly modulated expression (PBMCs) [genes] | Number of differentially expressed genes: down-regulated (PBMCs) [genes] | Number of differentially expressed genes: up-regulated (PBMCs) [genes] | Modulation of interferon-stimulated genes (ISGs) (PBMCs) | Levels of IL-2, IL-6, IFN-γ, TNF-α and IL-17A in coculture supernatants [1] | Levels of Th2-associated IL-4 and IL-10 in coculture supernatants [1]
1 | CCCCCCCCCCCCCCCCCC(=O)Oc1ccc(/C=C/C(=O)NCC(=O)N[C@H](C(=O)N[C@H](CCC(=O)OCC)C(=O)OCC)C(C)C)cc1OC [Compound 75, Diethyl ((E)-3-(3-Methoxy-4-(stearoyloxy)phenyl)acryloyl)glycyl-L-valyl-D-glutamate] | 270 | 143 | 127 |  |  | 
2 | COc1cc(/C=C/C(=O)NCC(=O)N[C@H](C(=O)N[C@H](CCC(=O)OC2CCCC2)C(=O)OC2CCCC2)C(C)C)ccc1O [Compound 68, Dicyclopentyl ((E)-3-(4-Hydroxy-3-methoxyphenyl)acryloyl)glycyl-L-valyl-D-glutamate] | 445 | 215 | 230 | up-regulation of several interferon-stimulated genes | elevated levels | unaffected levels
